Data set [1] deals with recombinant full-length HIV-1 NC. The data set is described as follows: High-throughput screening (HTS): inhibition of NC-mediated melting of TAR RNA hairpin. Format: biochemical. To be noted: 0.1 μM TAR, 0.8 μM NC, compound pre-incubated 37 °C 2 h; mean of three experiments; read-out: IC50, inhibition of NC-mediated melting of individual TAR RNA hairpin. The procedure: This assay is based on the doubly labeled TAR construct used above in the FQA experiments and is extensively employed to screen for inhibitors of NC melting activity. After preliminary controls to ensure the absence of direct quenching activity by the compounds under investigation, their ability to inhibit TAR RNA melting was evaluated in the presence of recombinant full-length HIV-1 NC. By adding increasing amounts of B-CePs, we determined the concentration of each compound that induced a 50% reduction in the destabilizing activity of NC (i.e., IC50) on TAR.
High-throughput screening (HTS) was performed to identify the inhibitors of NC chaperone activity on TAR. We used a VictorIII (PerkinElmer) microplate reader with 485 and 535 nm as the excitation and emission wavelengths. The TAR RNA hairpin was formed by snap cooling in the 1× BPE buffer, as described above. A 1 μM aliquot of TAR, which bore 5′-FAM and 3′-DAB modifications, was folded in 1× BPE buffer. The samples were then diluted to 0.1 μM in 1× BPE buffer. Increasing concentrations of compound (0, 0.1, 0.5, 1, 5, 10, 50, 100 μM final) were added to each sample and incubated at 37 °C for 2 h before introducing NC to a final concentration of 0.8 μM (for a 1:8 oligo to NC molar ratio). The plate was immediately read at room temperature three times with 1 min intervals, unless differently specified. The experimental data were fitted as reported earlier to enable calculation of the respective IC50 value.16 Each experiment was performed in triplicate to calculate an average and standard deviation.

The test system of data set [2] is TAR RNA. The data set is described as follows: Fluorescence quenching assay (FQA): thermal melting of TAR RNA hairpin. The note with it: 10 μM compound, 1 μM TAR, 37 °C 2 h, BPE buffer. Format: binding, HIV-1. An excerpt:
A first insight into the putative interaction of B-CePs with RNA was offered by the investigation of the ability of the selected compounds to stabilize the TAR hairpin structure. We employed fluorescence quenching assays (FQA) to measure the ability of each B-CeP to modify the thermal denaturation profile of the TAR construct shown in Figure 1A, which was functionalized at both termini with a fluorophore-quencher couple. In this way, thermal melting of the structure can be assessed from the intensity of the detected fluorescence signal. The melting profile of TAR in the presence of increasing concentrations of each compound allowed an evaluation of the shift in melting temperature (ΔTm) from the reference value, which was determined in the absence of compound. Sample solutions contained 1 μM of RNA substrate and 10, 50 or 100 μM of each B-CePs compound. Figure 2 summarizes the values of ΔTm obtained by adding increasing concentrations of B-CePs 1–5. […]
The ability of the tested compounds to stabilize the TAR RNA structure was measured by the increase in the melting temperature of the oligoribonucleotide in the presence of different concentrations of each compound. […] Fluorescence emission of FAM was read by using a Light Cycler 480 II (Roche, Basel, CH) with emission at λ = 510 nm and correlated to the melting temperature of the oligoribonucleotide. […]

Data set [3] concerns TAR RNA. The data set is described as follows: ESI-MS of reaction mixtures of B-CePs with TAR. Format: binding, HIV-1. From the text:
To elucidate the molecular details of the products observed by PAGE, we further characterized the outcome of the reaction with TAR by electrospray ionization-mass spectrometry (ESI-MS). A preliminary determination was accomplished on the individual TAR construct, and a representative ESI-MS spectrum is provided in Figure 4A. Only the region containing the 5-charge state is shown for the sake of clarity. The detected species labelled [TAR-5H]^5− in Figure 4A afforded an experimental mass of 9286.25 Da, which matches the monoisotopic value of 9286.24 Da calculated from the RNA sequence very closely (Table 1). Successively, we performed the experiment by reacting compound 1 with TAR at 1 μM. After 2 h of incubation, at 37 °C, the reaction mixture was submitted to ethanol precipitation to achieve quenching and desalting, which enabled a direct infusion ESI-MS analysis. […] In the presence of nucleic acids, aziridinium preferentially attacks N7 of guanines on the substrate, forming different types of adduct (Scheme S1 in Supplementary Materials).^22 Analyzing a new species in Figure 4B, their masses matched those of products generated by either mono- or bis-alkylation reactions. The species TAR + 1B, displaying a mass of 9548.49 u, corresponded to bi-functional adducts formed by the reaction of both 3-chloropiperidine reactive moieties with the RNA strand (labelled [TAR + 1B − 5H]^5− in the inset in Figure 4B). Differently, TAR + 1M species with a mass of 9566.49 u was assigned to mono-functional adducts, in which only one of the 3-chloropiperidines reacted with the substrate, whereas the other was hydrolyzed to 3-hydroxyl by the aqueous environment (labelled [TAR + 1M − 5H]^5− in the inset in Figure 4B). Table 1 summarizes the experimental and calculated masses of the new products and provides the assignment of the various species detected in Figure 4B.
Figure 4 Representative electrospray-ionization mass spectrometry (ESI-MS) spectra of reaction mixtures obtained by incubating TAR (1 μM) with increasing B-CeP 1 (A:0, B:1, C:10, D:50 μM) at 37 °C for 2 h in a BPE buffer (pH 7.4). The spectra B–D show the concentration-dependent reactions induced by B-CeP 1 on TAR. Greater stoichiometries corresponding to combinations of mono- and bi-functional adducts, were detected and indicated in orange in the figure. The spectra were recorded in 150 mM ammonium acetate. Lower intensity signals near free/adducted species consist of typical sodium and ammonium adducts. Only region containing the 5-charge state is shown for the sake of clarity.
The results shown in Figure 4C,D show the reaction products obtained, further increasing the concentration of compound 1, with 1 μM TAR solution incubated with 10 and 50 μM of B-CeP 1, respectively. […]

The conditions of data set [4]: cited from earlier work.
Data set [5] concerns TAR RNA. Briefly: Electrophoretic Mobility Shift Assay (EMSA), non-denaturing PAGE. In kind it is binding, HIV-1. The note with it: 1 μM folded TAR, 0-50 μM compound, 2 h 37 °C, BPE buffer pH 7.4. The method, then:
To further evaluate the interaction of B-CePs to TAR RNA, Electrophoretic Mobility Shift Assay (EMSA) was used as a simple tool to visualize the putative interaction of compound 1 with TAR. The RNA was folded in its hairpin secondary structure, incubated for 2 h at 37 °C with increasing concentrations of compound 1 (0, 1, 5, 10, 25, 35, 50 μM), and the reaction products were resolved by polyacrylamide gel electrophoresis (PAGE). Figure 3 provides the results obtained in non-denaturing PAGE.
Figure 3 Non-denaturing polyacrylamide gel electrophoresis (PAGE) (PAA 12%) in TBE 1× showing the concentration-dependence of the interaction of B-CeP 1 with TAR. Folded TAR hairpin 1 μM was incubated with increasing concentrations of compound (0, 1, 5, 10, 25, 35, 50 μM) for 2 h at 37 °C with a BPE buffer (pH 7.4).
Electrophoretic Mobility Shift Assay (EMSA) was used to assess the ability of compound 1 to directly interact to TAR RNA construct. Prior to incubation with compound, TAR RNA was heated to 95 °C for 5 min and then ice-cooled in order to assume the proper hairpin structure. TAR RNA construct (1 μM) was then incubated with increasing concentrations (from 0 to 50 μM) of B-CeP 1, at 37 °C for 2 h in 1× BPE buffer (pH 7.4). […] Fluorescence in gel system was detected on a Geliance 600 Imaging System (PerkinElmer, Waltham, MA, USA).

The term IC50 denotes the concentration that gives 50% inhibition. On to `COC(=O)[C@@H](CCCCN1CC(Cl)CC(C)(C)C1)N1CC(Cl)CC(C)(C)C1` (some centres unmarked) [Compound 5], for which, in data set [1], the IC50 was determined as 4.78 ± 0.71 µM. For the same compound, the “Tm increase of TAR RNA (stabilization effect)” value in the data set with TAR RNA [2] is on record as “much weaker stabilization effect”.
`CC1(C)CC(Cl)CN(CCCCCCN2CC(Cl)CC(C)(C)C2)C1` (centres unmarked) [Compound 3]: the IC50 in data set [1] turned out to be 3.55 ± 0.37 µM.
`COC(=O)[C@H](CCCCN1CC(Cl)CC(C)(C)C1)N1CC(Cl)CC(C)(C)C1` (some centres unmarked) [Compound 4]: the half-maximal inhibitory concentration (IC50) in data set [1] was determined as 5.09 ± 0.05 µM. The “Tm increase of TAR RNA (stabilization effect)” value in the data set with TAR RNA [2] is “much weaker stabilization effect”.
In the case of `CC1(C)CC(Cl)CN(CCCN2CC(Cl)CC(C)(C)C2)C1` (centres unmarked) [Compound 1], in the data set on TAR RNA [3] (1 μM TAR with 10 and 50 μM compound), the “Binding stoichiometries on TAR detected by ESI-MS” value was “up to five equivalents”. Further, the “Products of the reaction with TAR detected by ESI-MS” value with TAR RNA [3] (1 μM TAR, 37 °C 2 h, BPE buffer) was “covalent adducts”. Moreover, the “Fragmentation of the oligoribonucleotide chain of TAR RNA” value in the data set with TAR RNA [3] (ESI spectrometry and gel electrophoresis) is reported as “not detected”. In data set [1], the IC50 is 4.75 ± 0.15 µM. Moreover, the Cytotoxicity entry in data set [4] (ref [22],[25]) is reported as “low cytotoxicity”. Further, the “Concentration at which binding events (band shift) reach a plateau” value with TAR RNA [5] was determined as 25 µM.
Consider `CC1(C)CC(Cl)CN(CCCCCN2CC(Cl)CC(C)(C)C2)C1` (centres unmarked) [Compound 2], for which the “Relative reactivity towards the TAR construct (comparison of ESI-MS spectra)” value with TAR RNA [3] (same B-CeP/TAR molar ratio (10 μM compound, 1 μM TAR)) is “most reactive”. In data set [1], the IC50 was 2.75 ± 0.7 µM. For the same compound, the “Effect of the longer linker on cell permeability and cytotoxicity” value in data set [4] (ref [26]) was “increases cell permeability and cytotoxicity”.

Source of the values: paper PMC8038054, “Bis-3-Chloropiperidines Targeting TAR RNA as A Novel Strategy to Impair the HIV-1 Nucleocapsid Protein” (Molecules, 2021).
